Experimental data taken from patent US9663473B2 (Actelion Pharmaceuticals Ltd, priority 2013, dated 2017).
Structures can show the parent of a compound that is named as a salt.

These molecules were tested against T1, recombinant human ALX receptor (Homo sapiens, UniProt P25090) (assay: Intracellular calcium measurements (FLIPR), ALX receptor agonistic activity). Settings: HEK293-hALXR-Gα16 cells, Fluo-4 calcium signal, normalized to WKYMVm 10 nM.
T1 construct: expressed in transfected cells; host or cells: HEK293 (HEK293-hALXR-Gα16)
T1 sequence (P25090 1-351): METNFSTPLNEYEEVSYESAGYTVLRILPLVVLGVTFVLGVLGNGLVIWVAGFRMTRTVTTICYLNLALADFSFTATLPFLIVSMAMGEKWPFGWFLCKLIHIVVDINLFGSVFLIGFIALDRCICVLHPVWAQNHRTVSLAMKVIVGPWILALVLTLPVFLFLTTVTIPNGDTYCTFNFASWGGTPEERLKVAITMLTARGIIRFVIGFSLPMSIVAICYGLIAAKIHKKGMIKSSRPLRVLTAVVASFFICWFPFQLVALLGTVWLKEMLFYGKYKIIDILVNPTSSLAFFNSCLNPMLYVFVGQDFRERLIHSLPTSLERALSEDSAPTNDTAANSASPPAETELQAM
Assay type: cell-based
Procedure, shortened: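 HEK293 cells co-expressing human ALX receptor and Gα16 were loaded with 1 μM Fluo-4 AM for 60 min at 37° C., then exposed to serially diluted compounds on FLIPR Tetra. Peak fluorescence above baseline (ex 488/em 540 nm) was normalized to 10 nM WKYMVm as high control.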

Row | Structure (SMILES) | EC50
1 | COc1ccc(C[C@@H](NC(=O)N[C@H](C)[C@@H](O)c2ccccc2)c2nc3ccccc3[nH]2)cc1 [Example 209, 1-((R)-1-(1H-Benzo[d]imidazol-2-yl)-2-(4-methoxyphenyl)ethyl)-3-((1S,2R)-1-hydroxy-1-phenylpropan-2-yl)urea] | 1.5 nM
2 | COc1ccc(C[C@@H](NC(=O)NCc2ccccc2C#N)c2nc3ccccc3[nH]2)cc1 [Example 211, (R)-1-(1-(1H-Benzo[d]imidazol-2-yl)-2-(4-methoxyphenyl)ethyl)-3-(2-cyanobenzyl)urea] | 167 nM
3 | COc1ccc(C[C@@H](NC(=O)NC(CN2CCOCC2)c2ccccc2)c2nc3ccccc3[nH]2)cc1 (stereo partly drawn) [Example 214, 1-((R)-1-(1H-Benzo[d]imidazol-2-yl)-2-(4-methoxyphenyl)ethyl)-3-(2-morpholino-1-phenylethyl)urea] | 28 nM
4 | COc1ccc(C[C@@H](NC(=O)NCC(c2ccccc2)N2CCOCC2)c2nc3ccccc3[nH]2)cc1 (stereo partly drawn) [Example 215, 1-((R)-1-(1H-Benzo[d]imidazol-2-yl)-2-(4-methoxyphenyl)ethyl)-3-(2-morpholino-2-phenylethyl)urea] | 8.9 nM
5 | COc1ccc(C[C@@H](NC(=O)NCc2cccnc2COC(C)C(F)(F)F)c2nc3ccccc3[nH]2)cc1 (stereo partly drawn) [Example 216, 1-((R)-1-(1H-Benzo[d]imidazol-2-yl)-2-(4-methoxyphenyl)ethyl)-3-((2-(((1,1,1-trifluoropropan-2-yl)oxy)methyl)pyridin-3-yl)methyl)urea] | 2.1 nM
6 | O=C(N[C@H](Cc1ccc(Br)cc1)c1nc2ccc(C(F)(F)F)cc2[nH]1)N[C@H]1CC[C@H](O)CC1 [Example 222, 1-((R)-2-(4-Bromophenyl)-1-(6-(trifluoromethyl)-1H-benzo[d]imidazol-2-yl)ethyl)-3-(trans-4-hydroxycyclohexyl)urea] | 7.8 nM
7 | COc1ccc(C[C@@H](NC(=O)N[C@H]2CC[C@@H](C(=O)OC)CC2)c2nc3ccccc3[nH]2)cc1 [Example 223, cis-Methyl 4-(3-((R)-1-(1H-benzo[d]imidazol-2-yl)-2-(4-methoxyphenyl)ethyl)ureido)cyclohexanecarboxylate] | 178 nM
8 | COc1ccc(C[C@@H](NC(=O)N[C@H]2CC[C@H](C(=O)OC)CC2)c2nc3ccccc3[nH]2)cc1 [Example 224, trans-Methyl 4-(3-((R)-1-(1H-benzo[d]imidazol-2-yl)-2-(4-methoxyphenyl)ethyl)ureido)cyclohexanecarboxylate] | 8.2 nM
9 | COc1ccc(C[C@@H](NC(=O)N[C@H]2CC[C@H](C(=O)O)CC2)c2nc3ccccc3[nH]2)cc1 [Example 225, trans-4-(3-((R)-1-(1H-Benzo[d]imidazol-2-yl)-2-(4-methoxyphenyl)ethyl)ureido)cyclohexanecarboxylic acid, lithium salt] | 48 nM
10 | COC(=O)C1CCCC(NC(=O)N[C@H](Cc2ccc(OC)cc2)c2nc3ccccc3[nH]2)C1 (stereo partly drawn) [Example 228, Methyl 3-(3-((R)-1-(1H-benzo[d]imidazol-2-yl)-2-(4-methoxyphenyl)ethyl)ureido)cyclohexanecarboxylate] | 11 nM
11 | COc1ccc(C[C@@H](NC(=O)NC2CCCC(C(=O)O)C2)c2nc3ccccc3[nH]2)cc1 (stereo partly drawn) [Example 229, Lithium 3-(3-((R)-1-(1H-benzo[d]imidazol-2-yl)-2-(4-methoxyphenyl)ethyl)ureido)cyclohexanecarboxylate] | 94 nM
12 | O=C(NC(Cc1ccc(Br)c(F)c1)c1nc2ccccc2[nH]1)NC12CCC(O)(CC1)CC2 (stereo not drawn) [Example 230, 1-(1-(1H-Benzo[d]imidazol-2-yl)-2-(4-bromo-3-fluorophenyl)ethyl)-3-(4-hydroxybicyclo[2.2.2]octan-1-yl)urea] | 21 nM
13 | O=C(NC(Cc1ccc(C(F)(F)F)c(F)c1)c1nc2ccccc2[nH]1)NC12CCC(O)(CC1)CC2 (stereo not drawn) [Example 238, 1-(1-(1H-Benzo[d]imidazol-2-yl)-2-(3-fluoro-4-(trifluoromethyl)phenyl)ethyl)-3-(4-hydroxybicyclo[2.2.2]octan-1-yl)urea] | 36 nM
14 | COc1ccc(CC(NC(=O)NC23CCC(O)(CC2)CC3)c2nc3ccc(F)cc3[nH]2)c(F)c1 (stereo not drawn) [Example 245, 1-(1-(6-Fluoro-1H-benzo[d]imidazol-2-yl)-2-(2-fluoro-4-methoxyphenyl)ethyl)-3-(4-hydroxybicyclo[2.2.2]octan-1-yl)urea] | 4.1 nM
15 | COc1cc(F)c(CC(NC(=O)NC23CCC(O)(CC2)CC3)c2nc3ccccc3[nH]2)cc1F (stereo not drawn) [Example 249, 1-(1-(1H-Benzo[d]imidazol-2-yl)-2-(2,5-difluoro-4-methoxyphenyl)ethyl)-3-(4-hydroxybicyclo[2.2.2]octan-1-yl)urea] | 4.2 nM
16 | COc1ccc(CC(NC(=O)NC23CCC(O)(CC2)CC3)c2nc3ccccc3[nH]2)c(F)c1F (stereo not drawn) [Example 251, 1-(1-(1H-Benzo[d]imidazol-2-yl)-2-(2,3-difluoro-4-methoxyphenyl)ethyl)-3-(4-hydroxybicyclo[2.2.2]octan-1-yl)urea] | 6.6 nM
17 | O=C(N[C@H](Cc1ccc(C(F)(F)F)cc1)c1nc2cc(F)ccc2[nH]1)N[C@H]1CC[C@H](O)CC1 [Example 265, 1-((R)-1-(5-Fluoro-1H-benzo[d]imidazol-2-yl)-2-(4-(trifluoromethyl)phenyl)ethyl)-3-(trans-4-hydroxycyclohexyl)urea] | 4.7 nM

Further lines, results first:

Row | EC50 | Structure (SMILES)
18 | 21 nM | COc1ccc(C[C@@H](NC(=O)N[C@@H](Cc2ccccc2)C(N)=O)c2nc3ccccc3[nH]2)cc1 [Example 208, (S)-2-(3-((R)-1-(1H-Benzo[d]imidazol-2-yl)-2-(4-methoxyphenyl)ethyl)ureido)-3-phenylpropanamide]
19 | 2.8 nM | COc1ccc(C[C@@H](NC(=O)N[C@H](CO)Cc2ccccc2)c2nc3ccccc3[nH]2)cc1 [Example 212, 1-((R)-1-(1H-Benzo[d]imidazol-2-yl)-2-(4-methoxyphenyl)ethyl)-3-((S)-1-hydroxy-3-phenylpropan-2-yl)urea]
20 | 53 nM | COc1ccc(C[C@@H](NC(=O)Nc2c(-c3ccccc3)noc2C)c2nc3ccccc3[nH]2)cc1 [Example 213, (R)-1-(1-(1H-Benzo[d]imidazol-2-yl)-2-(4-methoxyphenyl)ethyl)-3-(5-methyl-3-phenylisoxazol-4-yl)urea]
21 | 19 nM | COc1ccc(C[C@@H](NC(=O)NCc2nccnc2OCC(F)(F)F)c2nc3ccccc3[nH]2)cc1 [Example 217, (R)-1-(1-(1H-Benzo[d]imidazol-2-yl)-2-(4-methoxyphenyl)ethyl)-3-((3-(2,2,2-trifluoroethoxy)pyrazin-2-yl)methyl)urea]
22 | 34 nM | COc1ccc(C[C@@H](NC(=O)NC2COCc3ccccc32)c2nc3ccccc3[nH]2)cc1 (stereo partly drawn) [Example 218, 1-((R)-1-(1H-Benzo[d]imidazol-2-yl)-2-(4-methoxyphenyl)ethyl)-3-(isochroman-4-yl)urea]
23 | 14 nM | COc1ccc(C[C@@H](NC(=O)NCc2ccccc2OCC(F)(F)F)c2nc3ccccc3[nH]2)cc1 [Example 219, (R)-1-(1-(1H-Benzo[d]imidazol-2-yl)-2-(4-methoxyphenyl)ethyl)-3-(2-(2,2,2-trifluoroethoxy)benzyl)urea]
24 | 4.9 nM | O=C(N[C@H](Cc1ccc(Br)cc1)c1nc2ccccc2[nH]1)NC12CCC(O)(CC1)CC2 [Example 220, (R)-1-(1-(1H-Benzo[d]imidazol-2-yl)-2-(4-bromophenyl)ethyl)-3-(4-hydroxybicyclo[2.2.2]octan-1-yl)urea]
25 | 4 nM | Cc1ccc2nc([C@@H](Cc3ccc(Br)cc3)NC(=O)N[C@H]3CC[C@H](O)CC3)[nH]c2c1 [Example 221, 1-((R)-2-(4-Bromophenyl)-1-(6-methyl-1H-benzo[d]imidazol-2-yl)ethyl)-3-(trans-4-hydroxycyclohexyl)urea]
26 | 3.7 nM | COc1ccc(CC(NC(=O)NC23CCC(O)(CC2)CC3)c2nc3ccccc3[nH]2)c(F)c1 (stereo not drawn) [Example 233, 1-(1-(1H-Benzo[d]imidazol-2-yl)-2-(2-fluoro-4-methoxyphenyl)ethyl)-3-(4-hydroxybicyclo[2.2.2]octan-1-yl)urea]
27 | 4.5 nM | COc1cc(F)c(CC(NC(=O)NC23CCC(O)(CC2)CC3)c2nc3ccccc3[nH]2)c(F)c1 (stereo not drawn) [Example 248, 1-(1-(1H-Benzo[d]imidazol-2-yl)-2-(2,6-difluoro-4-methoxyphenyl)ethyl)-3-(4-hydroxybicyclo[2.2.2]octan-1-yl)urea]
28 | 21 nM | O=C(NC(Cc1ccc(Br)cc1F)c1nc2ccccc2[nH]1)NC12CCC(O)(CC1)CC2 (stereo not drawn) [Example 254, 1-(1-(1H-Benzo[d]imidazol-2-yl)-2-(4-bromo-2-fluorophenyl)ethyl)-3-(4-hydroxybicyclo[2.2.2]octan-1-yl)urea]
29 | 27 nM | O=C(N[C@H](Cc1ccc(C(F)(F)F)cc1)c1nc2ccccc2[nH]1)NC12CCC(O)(CC1)CC2 [Example 255, (R)-1-(1-(1H-Benzo[d]imidazol-2-yl)-2-(4-(trifluoromethyl)phenyl)ethyl)-3-(4-hydroxybicyclo[2.2.2]octan-1-yl)urea]
30 | 13 nM | C[C@]1(O)CC[C@H](NC(=O)N[C@H](Cc2ccc(C(F)(F)F)cc2)c2nc3ccccc3[nH]2)CC1 [Example 256, 1-((R)-1-(1H-Benzo[d]imidazol-2-yl)-2-(4-(trifluoromethyl)phenyl)ethyl)-3-(trans-4-hydroxy-4-methylcyclohexyl)urea]
